Values after ≈ are worked out from the molar mass of the structure shown.
Assays:
MV4-11 cells = experiment: Synergy with AML drugs in vitro; type: cell-based; details: MV4-11 cells in vitro
From the text: Another consequence of XPB binding is the inhibition of nucleotide excision repair.

[1] = PG796(MRx102) solubility in emulsion formulations; type: physicochemical; details: emulsion formulation, aqueous with cosolvent or surfactant or cyclodextrin
Method: Various ratios of the nonionic surfactants polysorbate 80 (a.k.a. Tween 80) and Span 80 were explored, and a formulation was prepared and tested as follows. […] The results of this preliminary experiment were encouraging in that a reasonably high solubility was obtained in a formulation containing almost 70% water.
Emulsion formulations were prepared using a probe sonicator to disperse the oil phase in the aqueous phase to form a creamy opaque suspension.
Typical emulsion formulations consist of 10-30% triglyceride, most commonly SBO, dispersed with 0.5-2% phospholipids in an aqueous phase, which contains glycerin as a tonicity agent. […] Additionally, PEG-400 and ethanol were incorporated into some of the formulations to decrease the polarity of the aqueous phase to enhance solubility. Sodium cholate was included in some formulations as a co-surfactant. Solubility of at least 1 mg/mL was obtained in all of the formulations. In each case some loss of potency was observed after eight days of storage, but the majority of the original potency was maintained.
Pharmaceutical emulsions are typically prepared at neutral to slightly alkaline pH since they are stabilized by electrostatic repulsion between droplets imparted by pH-sensitive anionic surfactants, such as phosphatidyl ethanolamine, free fatty acid salts, and cholate. However, it was possible that this pH range could be suboptimal for the chemical stability of PG796(MRx102). To test this, emulsions were prepared at different pH values ranging from 4 to 8. Buffers were included to control the pH, and the non-pH sensitive surfactant, sodium dodecyl sulfate was used in place of sodium cholate to assure a negative charge even in the low pH emulsions. All of the formulations were reasonably stable for up to 2 weeks at room temperature. […]

[2] = tested on: bulk, CD34(+) progenitor and CD34(+)CD38(−) stem/progenitor cells from AML patients; details: low nanomolar concentrations; also in coculture with mesenchymal stromal cells; Carter et al. 2012; cited from earlier work
[3] = emulsion target pH 4.0 (acetate)
[4] = emulsion target pH 5.0 (acetate)
[5] = emulsion target pH 6.0 (histidine)
[6] = emulsion target pH 7.0 (phosphate)

## CC(C)[C@]12O[C@H]1[C@@H]1O[C@]13[C@]1(O[C@H]1C[C@H]1c4c(C(=O)c5ccccc5)oc(OC(=O)c5ccccc5)c4CC[C@@]13C)[C@@H]2O [PG796, 18-deoxo-19-dehydro-18-benzoyloxy-19-benzoyl triptolide]
MV4-11 cells
  synergy with cytarabine: synergy was demonstrated
  synergy with idarubicin: synergy was demonstrated
[1]; [3]
  solubility at 0 hr: 870 µg/mL (≈ 1530 µM)
  solubility at 1 wk: 1000 µg/mL (≈ 1760 µM)
  solubility at 2 wk: 848 µg/mL (≈ 1490 µM)
  solubility at 24 hr: 917 µg/mL (≈ 1610 µM)
[1]; [4]
  solubility at 0 hr: 1010 µg/mL (≈ 1770 µM)
  solubility at 1 wk: 972 µg/mL (≈ 1710 µM)
  solubility at 2 wk: 910 µg/mL (≈ 1600 µM)
  solubility at 24 hr: 922 µg/mL (≈ 1620 µM)
[1]; [5]
  solubility at 0 hr: 1090 µg/mL (≈ 1920 µM)
  solubility at 1 wk: 948 µg/mL (≈ 1670 µM)
  solubility at 2 wk: 850 µg/mL (≈ 1490 µM)
  solubility at 24 hr: 890 µg/mL (≈ 1570 µM)
[1]; [6]
  solubility at 0 hr: 996 µg/mL (≈ 1750 µM)
  solubility at 1 wk: 760 µg/mL (≈ 1340 µM)
  solubility at 2 wk: 822 µg/mL (≈ 1450 µM)
  solubility at 24 hr: 849 µg/mL (≈ 1490 µM)
[1]; emulsion target pH 8.0 (Tris)
  solubility at 0 hr: 929 µg/mL (≈ 1630 µM)
  solubility at 1 wk: 1040 µg/mL (≈ 1830 µM)
  solubility at 2 wk: 930 µg/mL (≈ 1640 µM)
  solubility at 24 hr: 929 µg/mL (≈ 1630 µM)
[1]; preliminary emulsion: 29.4% GTO, 1.65% Span 80, 0.31% Tween 80, 68.6% water
  solubility: 681 µg/mL (≈ 1200 µM)
[2]
  apoptosis in cells from AML patients: induced apoptosis

From US20160038454A1, “INTRAVENOUS FORMULATIONS OF […] AS IMMUNOMODULATORS AND […] AGENTS” (priority 2013, published 2016)
